Data: US4608338A, “Process for bioconversion-product recovery” (Celanese Corporation, priority 1982, dated 1986)

Key:
[1] = solubility of muconic acid in acidified aqueous fermentation medium; type: physicochemical; details: pH of 1-2, 20° C.
Procedure: Under optimal conditions, the muconic acid accumulation limit can approach up to about 50 grams of muconic acid per liter of growth medium. The microbiological oxidation step of the present invention process normally is conducted at ambient temperatures up to about 31° C. The muconic acid at a concentration between about 10-45 grams/liter in the cell-free ammonia-neutralized aqueous fermentation medium is precipitated with sulfuric acid or phosphoric acid. The precipitated muconic acid (solubility at pH of 1-2, about 0.07% at 20° C.) is filtered, washed and dried. In a further embodiment of the present invention, the muconic acid is admixed with a solvent medium such as acetic acid (e.g., to form a 40 weight percent muconic acid/acetic acid slurry solution), and then treated under hydrogenation conditions to yield adipic acid.

[2] = solubility of muconic acid at pH 1.0 (Example III B, precipitation from regular "NO" medium); type: physicochemical
Procedure: To 500 ml of regular "NO" medium are added 15 grams of cis, cis-muconic acid. The pH of the solution is about […]. A 14.2 ml quantity of concentrated NH4 OH solution (15N) is added to adjust the pH to 6.2.
To the neutralized solution is added a 17 ml quantity of concentrated H2 SO4 solution, which lowers the pH of the solution to 0.99. White solids precipitate from the solution, and the solids are filtered, washed and recovered as muconic acid (quantitative recovery; solubility of muconic acid at pH 1.0 is 0.03 wt %).

- solubility [1]: about 0.07%
- solubility [2]: 0.03 wt %
Structure (SMILES): O=C(O)/C=C\C=C/C(=O)O [muconic acid, cis, cis-muconic acid]
